The values that follow come from US20250325534A1, “MICROBIOCIDAL TETRAHYDROISOQUINOLINE DERIVATIVES” (SYNGENTA CROP PROTECTION AG, priority 2021, published 2025).

The term pest or weed control denotes the degree to which the test organism was suppressed or injured, in per cent. A lower pest or weed control goes with a weak effect.

One test relates to Glomerella lagenarium. The test is described as follows: Glomerella lagenarium (Colletotrichum lagenarium) / liquid culture (anthracnose). The class given is cell-based. To be noted: Colletotrichum orbiculare, 72 h, photometrically 3-4 days after application, read-out: control of Glomerella lagenarium. The gist of the method:
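Conidia in potato dextrose broth added to test compound delivered as DMSO solution in microtiter plates; incubation at 24° C. Growth inhibition read photometrically 3-4 days after application.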

The next test relates to Botryotinia fuckeliana. The test is described as follows: Botryotinia fuckeliana (Botrytis cinerea) / liquid culture (gray mould). The class given is cell-based. The settings on record: 72 h, growth inhibition photometrically 3-4 days after application, read-out: control of Botryotinia fuckeliana. The gist of the method:
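Botrytis cinerea conidia in Vogels nutrient broth added to test compound delivered in DMSO. Incubated at 24 °C; growth inhibition measured photometrically 3–4 days after application.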

In the next test the test system is Alternaria solani. Description: Alternaria solani / tomato / leaf disc (early blight). The class given is in vivo. The settings on record: foliar, inoculated 2 days after application, vs untreated control.
The test system of another test is fungi. Description: Fungicidal activity of separated stereoisomers compared (test not specified). The settings on record: comparison of SFC-separated isomers; test and fungus not given.
Test [1] concerns Mycosphaerella graminicola. The test is described as follows: Mycosphaerella graminicola (Septoria tritici) / liquid culture (Septoria blotch). The format is cell-based. The settings on record: Zymoseptoria tritici, 96 h, photometrically 4-5 days after application, read-out: control of Mycosphaerella graminicola. Put shortly:
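Conidia from cryogenic storage mixed into potato dextrose broth, added to test compound in DMSO. Plates incubated at 24° C; growth inhibition read photometrically 4-5 days after application.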

In the next test the test system is Phaeosphaeria nodorum. Description: Phaeosphaeria nodorum (Septoria nodorum) / wheat / leaf disc preventative (glume blotch). The format is in vivo. The settings on record: Parastagonospora nodorum, foliar, inoculated 2 days after application. The gist of the method:
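Wheat leaf discs (cv. Kanzler) on agar were sprayed with formulated compound diluted in water, then inoculated with spores 2 days later. Incubation was at 20 °C and 75% relative humidity under 12 h light/12 h dark. Percent disease control versus untreated was scored 5–7 days after application.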

In another test the test system is Pyrenophora teres. Description: Pyrenophora teres / barley / leaf disc preventative (net blotch). To be noted: foliar, inoculated 2 days after application. The format is in vivo. The gist of the method:
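Barley cv. Hasso leaf segments on agar sprayed with formulated compound in water, then inoculated with spore suspension 2 days later. Incubated at 20° C., 65% RH, 12 h light/12 h dark; disease control versus untreated assessed 5-7 days after application.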

A further test concerns Monographella nivalis. Description: Monographella nivalis (Microdochium nivale) / liquid culture (foot rot cereals). The settings on record: 96 h, photometrically 4-5 days after application, read-out: control of Monographella nivalis. The format is cell-based. Put shortly:
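Microdochium nivale conidia in potato dextrose broth were added to test compound in DMSO and incubated at 24° C. Growth inhibition was measured photometrically 4-5 days after application.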

The test system of the next test is Mycosphaerella arachidis. Description: Mycosphaerella arachidis (Cercospora arachidicola) / liquid culture (early leaf spot). The settings on record: 96 h, photometrically 4-5 days after application, read-out: control of Mycosphaerella arachidis. The class given is cell-based. The gist of the method:
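Cryostored M. arachidis conidia in potato dextrose broth were added to compound applied as DMSO solution. Incubated at 24 °C; growth inhibition measured photometrically 4-5 days after application.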

Another test relates to Sclerotinia sclerotiorum. Description: Sclerotinia sclerotiorum / liquid culture (cottony rot). The format is cell-based. The settings on record: 72 h, photometrically 3-4 days after application, read-out: control of Sclerotinia sclerotiorum. The procedure: Example B18: Sclerotinia sclerotiorum/Liquid Culture (Cottony Rot) Mycelia fragments of a newly grown liquid culture of the fungus are directly mixed into a nutrient broth (potato dextrose broth). After placing a DMSO solution of test compound into a microtiter plate (96-well format) the nutrient broth containing the fungal material is added. The test plates are incubated at 24° C. and the inhibition of growth is determined photometrically 3-4 days after application.

A further test relates to Fusarium culmorum. Description: microbe, parasite or virus in culture. The class given is cell-based. The settings on record: 72 h, read-out: control of Fusarium culmorum.
In test [2] the test system is Blumeria graminis f. sp. tritici. The test is described as follows: Blumeria graminis f. sp. tritici / wheat / leaf disc preventative (powdery mildew). The format is in vivo. The settings on record: foliar, inoculated 1 day after application. The procedure: Example B7: Blumeria graminis f. Sp. Tritici (Erysiphe graminis f. Sp. Tritici)/Wheat/Leaf Disc Preventative (Powdery Mildew on Wheat) Wheat leaf segments cv. Kanzler are placed on agar in a multiwell plate (24-well format) and sprayed with the formulated test compound diluted in water. The leaf disks are inoculated by shaking powdery mildew infected plants above the test plates 1 day after application. The inoculated leaf disks are incubated at 20° C. and 60% relative humidity under a light regime of 24 h darkness followed by 12 h light/12 h darkness in a climate chamber and the activity of a compound is assessed as percent disease control compared to untreated when an appropriate level of disease damage appears on untreated check leaf segments (6-8 days after application).

Test [3] concerns Puccinia recondita f. sp. tritici. Description: Puccinia recondita f. sp. tritici / wheat / leaf disc preventative (brown rust). The class given is in vivo. The settings on record: foliar, inoculated 1 day after application. The method, then: Example B14: Puccinia recondita f. Sp. Tritici/Wheat/Leaf Disc Preventative (Brown Rust) Wheat leaf segments cv. Kanzler are placed on agar in multiwell plates (24-well format) and sprayed with the formulated test compound diluted in water. The leaf disks are inoculated with a spore suspension of the fungus 1 day after application. The inoculated leaf segments are incubated at 19° C. and 75% relative humidity under a light regime of 12 h light/12 h darkness in a climate cabinet and the activity of a compound is assessed as percent disease control compared to untreated when an appropriate level of disease damage appears in untreated check leaf segments (7-9 days after application).

Regarding `C[C@H]1c2ccccc2[C@@](C)(c2cnn(C)c2)CN1C(=O)c1cc(-c2ccc(F)cc2F)on1` (single isomer, unassigned) [Compound P-6], the inhibition of growth at 20 ppm (with Glomerella lagenarium; with Botryotinia fuckeliana; in test [1]; in the test with Monographella nivalis; with Mycosphaerella arachidis) was not below 80% throughout. The pest or weed control at 200 ppm with Alternaria solani, in the test with Phaeosphaeria nodorum and in the test with Pyrenophora teres was not below 80% each time. Also, the “fungicidal activity relative to its stereoisomer” value in the test on fungi is reported as “more fungicidally active than the compound of peak 3”.

On to `C[C@@H]1c2ccccc2[C@@](C)(c2cnn(C)c2)CN1C(=O)c1cc(-c2ccc(F)cc2F)on1` (single isomer, unassigned) [Compound P-9], for which, in the test with fungi, the “fungicidal activity relative to its stereoisomer” value is “more fungicidally active than the compound of peak 2”. Also, the inhibition of growth at 20 ppm (in test [1]; in the test on Monographella nivalis) was not below 80% each time.

For the compound `Cc1c(C2CN(C(=O)c3cc(-c4ccc(F)cc4F)on3)Cc3ccccc32)cnn1C` (single isomer, unassigned) [Compound P-223, [5-(2,4-difluorophenyl)isoxazol-3-yl]-[4-(1,5-dimethylpyrazol-4-yl)-3,4-dihydro-1H-isoquinolin-2-yl]methanone], the inhibition of growth at 20 ppm (in the test on Glomerella lagenarium; in the test with Botryotinia fuckeliana; in test [1]; in the test on Sclerotinia sclerotiorum; with Fusarium culmorum; in the test on Monographella nivalis) was not below 80% each time. In addition, in the test on Mycosphaerella arachidis, the inhibition of growth at 20 ppm is not below 80%.

Take `Cc1c(C2CN(C(=O)c3nnc(-c4ccccc4F)s3)Cc3ccccc32)cnn1C` (stereo not shown) [Compound P-64, [4-(1,5-dimethylpyrazol-4-yl)-3,4-dihydro-1H-isoquinolin-2-yl]-[5-(2-fluorophenyl)-1,3,4-thiadiazol-2-yl]methanone]: the inhibition of growth at 20 ppm (in the test with Glomerella lagenarium; in the test on Botryotinia fuckeliana; in test [1]; in the test with Fusarium culmorum; with Monographella nivalis; in the test with Mycosphaerella arachidis) was not below 80% throughout. The pest or weed control at 200 ppm with Alternaria solani, with Phaeosphaeria nodorum and in the test with Pyrenophora teres was not below 80% in each case.

With `Cc1c(C2CN(C(=O)c3nnc(-c4ccc(F)cc4F)s3)Cc3ccccc32)cnn1C` (stereo not shown) [Compound P-65, [5-(2,4-difluorophenyl)-1,3,4-thiadiazol-2-yl]-[4-(1,5-dimethylpyrazol-4-yl)-3,4-dihydro-1H-isoquinolin-2-yl]methanone], the pest or weed control at 200 ppm (in test [2]; in the test with Alternaria solani; in the test with Phaeosphaeria nodorum; with Pyrenophora teres) was not below 80% in each case. The inhibition of growth at 20 ppm (with Glomerella lagenarium; in the test on Botryotinia fuckeliana; in [1]; in the test with Sclerotinia sclerotiorum; in the test on Fusarium culmorum; in the test with Monographella nivalis) was not below 80% each time. Further, the inhibition of growth at 20 ppm in the test with Mycosphaerella arachidis was not below 80%.

For `Cc1c(C2CN(C(=O)c3cc(-c4ccc(F)cc4F)no3)Cc3ccccc32)cnn1C` (stereo not shown) [Compound P-108, [3-(2,4-difluorophenyl)isoxazol-5-yl]-[4-(1,5-dimethylpyrazol-4-yl)-3,4-dihydro-1H-isoquinolin-2-yl]methanone], the pest or weed control at 200 ppm (in [2]; with Alternaria solani; with Phaeosphaeria nodorum; in the test with Pyrenophora teres) was not below 80% throughout. Moreover, the inhibition of growth at 20 ppm (in the test on Glomerella lagenarium; in the test with Botryotinia fuckeliana; in test [1]; in the test on Fusarium culmorum; with Monographella nivalis; with Mycosphaerella arachidis) was not below 80% throughout.

Regarding `Cc1c(C2CN(C(=O)c3cc(-c4ccc(F)cc4)no3)Cc3ccccc32)cnn1C` (stereo not shown) [Compound P-109, [4-(1,5-dimethylpyrazol-4-yl)-3,4-dihydro-1H-isoquinolin-2-yl]-[3-(4-fluorophenyl)isoxazol-5-yl]methanone], the pest or weed control at 200 ppm (in [2]; with Alternaria solani; in the test on Phaeosphaeria nodorum; with Pyrenophora teres; in test [3]) was not below 80% each time. Besides, the inhibition of growth at 20 ppm (in the test with Glomerella lagenarium; with Botryotinia fuckeliana; in test [1]; in the test on Sclerotinia sclerotiorum; in the test on Monographella nivalis; in the test with Mycosphaerella arachidis) was not below 80% each time.

For the compound `Cc1c(C2CN(C(=O)c3cc(-c4ccccc4F)on3)Cc3ccccc32)cnn1C` (stereo not shown) [Compound P-119, [4-(1,5-dimethylpyrazol-4-yl)-3,4-dihydro-1H-isoquinolin-2-yl]-[5-(2-fluorophenyl)isoxazol-3-yl]methanone], the inhibition of growth at 20 ppm (with Glomerella lagenarium; with Botryotinia fuckeliana; in test [1]; in the test with Fusarium culmorum; in the test with Monographella nivalis; in the test on Mycosphaerella arachidis) was not below 80% in each case. Further, the pest or weed control at 200 ppm in the test with Alternaria solani, with Phaeosphaeria nodorum and in the test on Pyrenophora teres was not below 80% each time.

For `Cn1cc(C2CN(C(=O)c3cc(-c4ccc(F)cc4F)on3)Cc3ccccc32)cn1` (stereo not shown) [Compound P-180, [5-(2,4-difluorophenyl)isoxazol-3-yl]-[4-(1-methylpyrazol-4-yl)-3,4-dihydro-1H-isoquinolin-2-yl]methanone], the inhibition of growth at 20 ppm (with Glomerella lagenarium; with Botryotinia fuckeliana; in [1]; with Sclerotinia sclerotiorum; in the test with Monographella nivalis; in the test with Mycosphaerella arachidis) was not below 80% each time. Moreover, the pest or weed control at 200 ppm in the test with Alternaria solani, in the test with Phaeosphaeria nodorum and in the test on Pyrenophora teres was not below 80% throughout.

On to `Cn1ncc(C2CN(C(=O)c3nnc(-c4ccc(F)cc4F)s3)Cc3ccccc32)c1Cl` (stereo not shown) [Compound P-212, [4-(5-chloro-1-methyl-pyrazol-4-yl)-3,4-dihydro-1H-isoquinolin-2-yl]-[5-(2,4-difluorophenyl)-1,3,4-thiadiazol-2-yl]methanone], for which the inhibition of growth at 20 ppm (with Glomerella lagenarium; with Botryotinia fuckeliana; in test [1]; with Sclerotinia sclerotiorum; in the test on Fusarium culmorum; in the test with Monographella nivalis) was not below 80% in each case. For the same compound, the inhibition of growth at 20 ppm in the test with Mycosphaerella arachidis was not below 80%.
